Test results published in patent US11766469B2, “Q-peptide hydrogel promotes immune modulation and macrophage differentiation” (Quthero, Inc., priority 2019, dated 2023).

What was measured:
[1] = system: bone marrow derived macrophages (BMDMs); assay: BMDM culture on hydrogel films: cell attachment, total cell count, viability (Zombie Violet); format: cell-based, C57BL/6 mice; conditions: after 24 hours of culture
Description: Murine bone marrow derived macrophages (BMDM) were isolated from 8-12 week-old C57BL/6 mice (Charles River) according to a protocol approved by the University of Toronto Animal Care Committee. The mice were euthanized, and the femur and tibias were removed and placed in complete RPMI 1640+L-glutamine media (Gibco, 10% heat inactivated Fetal Bovine Serum, FBS, 1% Pen/Strep). The bones were separated and sterilized in 70% ethanol for 10 minutes. The heads of the bones were cut off, and the marrow was flushed out with a 23 G needle containing fresh complete RPMI 1640 media. The remaining cell culture media and bone marrow was homogenized by gentle pipetting. The cells were spun down and resuspended in ACK Lysing Buffer (Gibco) for 1 min to lyse remaining red blood cells. The lysing buffer was diluted with PBS, and the cell suspension was re-spun, and counted. […]
Adherent macrophages were detached by incubating with 0.25% trypsin-EDTA for 10 minutes. […] After 24 hours of culture, cell culture media was collected for ELISA analysis by Eve Technologies (Calgary, AB), and the concentrations of INF-γ, IL-1β, IL-2, IL-4, IL-6, IL-10, IL-12 p′70, GM-CSF, MCP-1, TNF-α, TGF-β31, TGF-β2, and TGF-β3 were measured. […]

[2] = system: bone marrow derived macrophages (BMDMs); assay: ELISA of cytokines released by BMDMs into culture media; format: cell-based, C57BL/6 mice; conditions: 24 hours of culture
Description: Murine bone marrow derived macrophages (BMDM) were isolated from 8-12 week-old C57BL/6 mice (Charles River) according to a protocol approved by the University of Toronto Animal Care Committee. The mice were euthanized, and the femur and tibias were removed and placed in complete RPMI 1640+L-glutamine media (Gibco, 10% heat inactivated Fetal Bovine Serum, FBS, 1% Pen/Strep). The bones were separated and sterilized in 70% ethanol for 10 minutes. The heads of the bones were cut off, and the marrow was flushed out with a 23 G needle containing fresh complete RPMI 1640 media. The remaining cell culture media and bone marrow was homogenized by gentle pipetting. The cells were spun down and resuspended in ACK Lysing Buffer (Gibco) for 1 min to lyse remaining red blood cells. The lysing buffer was diluted with PBS, and the cell suspension was re-spun, and counted. Cells were seeded at 3 million cells/well in non-adherent 6-well culture plates containing 2 mL of complete RPMI 1640 media with 20 ng/mL of Macrophage Colony Stimulating Factor (M-CSF, Miltenyi Biotec). Half (50%) of the media was changed on day 3, and 5. On day 7, adherent cells were used as macrophages for experiments. Macrophage purity, as identified by F4/80+, CD11b+ positive staining, under all culture stimulations is >90%, consistent with previous studies (FIG. 6B).
Adherent macrophages were detached by incubating with 0.25% trypsin-EDTA for 10 minutes. Cells were polarized in response to the following treatment conditions: blank-included cultivation on tissue culture plastics; soluble Q-Peptide (650 μM) applied to macrophages cultivated on tissue culture plastics; and macrophages cultivated on the following hydrogel films: no peptide collagen-chitosan (empty) film, scrambled Q-Peptide film, and Q-Peptide film. BMDMs were polarized with lipopolysaccharide (LPS; 100 ng/mL) for pro-inflammatory, M(LPS), and IL-4 ([…]) for anti-inflammatory, M(IL-4) positive polarization controls. Cells were seeded directly onto a non-adherent 6-well plate for the blank and soluble Q-Peptide conditions, and onto solvent cast films for the empty film, scrambled Q-Peptide film, and Q-Peptide film at a concentration of 100,000 cells/cm^2. After 24 hours of culture, cell culture media was collected for ELISA analysis by Eve Technologies (Calgary, AB), and the concentrations of INF-γ, IL-1β, IL-2, IL-4, IL-6, IL-10, IL-12 p′70, GM-CSF, MCP-1, TNF-α, TGF-β31, TGF-β2, and TGF-β3 were measured.

[3] = system: rat myocardial infarction model; conditions: cited from earlier work
[4] = system: wounds; conditions: wounds treated; cited from earlier work
[5] = compared to blank, soluble Q-Peptide and empty film (LPS: vs Q-Peptide film)

## QHREDGS (SEQ ID NO: 1) with biotin-Ahx N-terminal modification [soluble Q-Peptide]
[1]
  final cell count (cells in solution and attached): did not affect the final cell count
[1]; compared with blank culture conditions
  cell attachment (number of adhered cells/mm2): decrease in cell attachment
[2]
  BMDM cytokine release / cytokine concentration (overall): only had an effect on BMDM cytokine release when immobilized to a hydrogel
[3]
  effectiveness in myocardial infarction model: effective

## lipopolysaccharide [LPS]
[2]; [5]
  concentration of IL-6: an order of magnitude greater
  concentration of MCP-1: an order of magnitude greater
[2]; relative to the other culture conditions (LPS: vs Q-Peptide film)
  concentration of IL-10: an order of magnitude greater

B1: recombinant human TGF-β3: recombinant human TGF-β3 used to treat wounds in a clinical trial (protein, UniProt P10600 301-412, looked up)
Transforming growth factor …: ALDTNYCFRNLEENCCVRPLYIDFRQDLGWKWVHEPKGYYANFCSGPCPYLRSADTTHSTVLGLYNTLNPEASASPCCVPQDLEPLTILYYVGRTPKVEQLSNMVVKSCKCS
[4]
  primary and secondary outcomes of a Phase III trial: failed to reach primary and secondary outcomes
